The text below walks through data of US6770644B1, “Hydroxamic acid derivatives, process for the production thereof and drug containing the same as the active ingredient” (Ono Pharmaceuticals Co., Ltd., priority 1999, dated 2004).

The subject of experiment [1] is IL-6 production from A549 cells. Description: Inhibitory activity on IL-6 production from A549 cells (TNF-α stimulated, ELISA). The experiment is classed as cell-based. As to conditions: A549 cells (human lung epithelial cell line), TNF-α stimulation, 24 hours, read-out: 50% inhibitory concentration (IC50) on IL-6 production. As to the method: (1) The Measurement of an Inhibitory Activity on IL-6 Production from A549 Cells
1.5×10^4 of A549 cells (human lung epithelial cell line) were suspended in 100 μL of Dulbecco's Modified Eagle Medium (DMEM) containing 0.5% fetal bovine serum (abbreviated as FBS) and incubated for a day and night in 96 well-microplate. 20 μL of the test compound dissolved in dimethylsulfoxide (DMSO) at various concentrations and 80 μL of tumor necrosis factor-α (TNF-α (Genzyme Co., cat. No. TNF-H)) dissolved in serum-free DMEM at the concentration of 12.5 ng/mL were added thereto. After the incubation for 24 hours, the supernatant (100 μL) was collected to measure the amount of IL-6 being produced using enzyme linked immuno […] assay (ELISA) (R&D Systems Co., cat. No. D6050). Then the inhibitory activity of the test compound was calculated and the 50% inhibitory concentration (IC50) was determined.
For orientation: In an ELISA, binding on a coated surface is turned into a signal by an enzyme label.

For experiment [2], the system named is IL-6 production from human synovial cells. As to the kind of experiment: Inhibitory activity on IL-6 production from human synovial cells (IL-1β stimulated, ELISA). It is filed as cell-based. To be noted: Synovial cell, synovial cells from rheumatoid arthritis patients, IL-1β stimulation, 24 hours, read-out: 50% inhibitory concentration (IC50) on IL-6 production. The method, then: (2) The Measurement of an Inhibitory Activity on IL-6 Production from Human Synovial Cells
3.0×10^3 of synovial cells from rheumatoid arthritis patients were suspended in 200 μL of DMEM containing 10% FBS and incubated for a day and night in 96 well-microplate, followed by the incubation for 5 hours in serum-free DMEM. 20 μL of the test compound dissolved in DMSO at various concentrations and 80 μL of interleukin-1β (IL-1β (Genzyme Co., cat. No. 80-3688-01)) dissolved in DMEM containing 2.5% fetal bovine serum at the concentration of 5 ng/mL were added thereto. After the incubation for 24 hours, the supernatant (100 μL) was collected to measure the amount of IL-6 being produced using ELISA (R&D Systems Co., cat. No. D6050). Then the inhibitory activity of the test compound was calculated and the 50% inhibitory concentration (IC50) was determined.

As for `O=C(CCCC[C@@H](O)c1ccc(-c2ccc(Cl)cc2)cc1)NO` [example 3], the IC50 was determined as 52 nM in experiment [1] and 41 nM in experiment [2].
